Measurements taken from patent EP0876161B1, “CONTRAST MEDIA” (priority 1996, dated 1997).

Legend:
mice = experiment: Maximum tolerated dose (MTD) in mice of formulated complex solution; type: in vivo; details: complex given as the formulated solution
[1] = Osmolality of the formulated complex solution; type: physicochemical
[2] = Osmolality determined in water, compared to the EGTA complex; type: physicochemical; details: concentration 41 mM

## Na4[(W3SO3)2(PDTA)3] [Na4[(W3SO3)2(PDTA)3] 11H2O]
mice
  maximum tolerated dose (MTD): > 6.5 mmoles complex/kg
[1]; 79mM solution, pH 6.6
  osmolality: 311 mmol/kg

## Na4[(W3SO3)2(OBETA)3] [Na4[(W3SO3)2(OBETA)3].10H2O]
mice
  maximum tolerated dose (MTD): -4.35 mmoles complex/kg
[1]; 107 mM solution, pH 7.03
  osmolality: 498 mmol/kg

## Na4[(W3SO3)2(EGTA)3] [Na4[(W3SO3)2(EGTA)3].10H2O]
[2]
  osmolality: 199 mmol/kg
mice
  maximum tolerated dose (MTD): ~7.75 mmoles complex/kg
[1]; 168 mM solution, pH 6.65
  osmolality: 685 mmol/kg

## Na4[(W3SO3)2(BDTA)3] [Na4[(W3SO3)2(BDTA)3].12H2O]
mice
  maximum tolerated dose (MTD): ~ 2.55 mmoles complex/kg
[1]; 120mM solution, pH 7.4
  osmolality: 459 mmol/kg

## (NMG)4[(W3SO3)2(HO-PDTA)3]
mice
  maximum tolerated dose (MTD): ~2.17 mmoles complex/kg
[1]; 153mM solution, pH 6.98
  osmolality: 499 mmol/kg

## Na4[(W3SO3)2(MeO-PDTA)3] [Na4[(W3SO3)2(MeO-PDTA)3] . 7H2O]
[1]; 140mM solution, pH 6.5
  osmolality: 563 mmol/kg

## Na4[(W3S3O)2(EGTA)3] [Na4[(W3S3O)2(EGTA)3] .6H2O]
mice
  maximum tolerated dose (MTD): ~3.95 mmoles complex/kg
[1]; 121 mM solution, pH 6.95
  osmolality: 517 mmol/kg
